Measurements published in a melting point compilation (Tetko et al.; mined from patent text by program, amines drawn as free bases though some values may be those of a salt).

| melting point [°C] | Structure (SMILES) |
| --- | --- |
| 190 to 191 | COc1ccc(CC(=O)Nc2cccc(/C=C/c3nc(C4CCC4)cs3)c2)c(C(=O)O)c1 |
| > 250 | CC(C)(C)OC(=O)Nc1cc(CO)c(I)cc1[N+](=O)[O-] |
| 83.5 to 85 | Cc1cc(Oc2csc(C(F)(F)F)c2)nc(-c2ccc(C(F)(F)F)cc2)n1 |
| 190 to 191 | CCOC(=O)c1c(S(=O)c2ccccc2)n(C2CC2)c2c(F)c(F)c(F)cc2c1=O (centres undefined) |
| 98 to 100 | CCOC(=O)c1ccccc1SN(C(=O)NC(=O)c1ccccc1Cl)c1ccc(Oc2ccc(C(F)(F)F)cc2Cl)cc1 |
| 121 to 122 | CCCC(C)(C)C(O)C(c1cccc(Cl)c1)n1cnc(C)c1 (centres undefined) |
| 153 to 154 | O=C(O)Cc1ccc(I)c(OCC(F)(F)F)c1 |
| 135 to 137 | COC(=O)c1ccc(OCC(=O)c2ccc3c(c2)C(C)(C)CCS3)cc1O |
| 213 to 216 | O=C(Nc1ccc(F)cc1F)Nc1cnc2cnccc2c1-c1ccccc1Cl |
| 59 to 61 | Cc1ccc(C2=C(c3ccc(S(C)(=O)=O)cc3)CN(C)C2=O)c(C)c1 |
| 154 to 155 | Cc1ccc(N)c(C#Cc2ccccc2)n1 |
| 195 | Cc1cc(Oc2ccccc2)c(S(C)(=O)=O)cc1C(=O)O |
| 157 to 159 | CC1Cc2cc(S(=O)(=O)n3cc(-c4ccccc4)[nH]c3=O)ccc2N1C(=O)CCl (centres undefined) |
| 202 to 203 | O=C(O)c1ccc(Sc2ccc(C(=O)O)c(C(=O)O)c2)cc1C(=O)O |
| 145 to 147 | Cc1cn2ccc3c(c2n1)NC(c1ccccc1)C(OC(=O)C(C)(C)C)C3=O (centres undefined) |
| 55 to 57 | CCOC(=O)C1Cc2cc3ccccc3n2C1 (centres undefined) |
| 245 to 248 | FC(F)c1nc2ccccc2n1-c1nc(Sc2ccccc2)nc(N2CCOCC2)n1 |
| 89 to 90 | BrC(c1ccccc1)c1ccc2ccccc2c1 (centres undefined) |
| 124 | O=C(c1ccncc1)c1cc(-c2ccncc2)c(N2CCOCC2)s1 |
| 173 to 175 | Cc1ccc(N(CCN2CCC(C(=O)c3ccc(F)cc3)CC2)C(=O)c2cccc(N)c2)cc1 |
| 89 to 90 | COc1cc(C)ccc1Oc1ccc(Br)cc1C=O |
| 168 to 173 | CN(C(=O)C(C)(C)c1cc(C(C)(C)C)c(O)c(C(C)(C)C)c1)C1CC(C)(C)NC(C)(C)C1 |
| 97 to 98 | O=C(OCc1ccccc1)c1cc(-c2ccc(-c3ccc(C(F)(F)F)cc3)o2)ccc1OCc1ccccc1 |

| melting point [°C] | Structure (SMILES) |
| --- | --- |
| 292 | O=C(Nc1ccc2ccc(Cl)nc2n1)c1cncs1 |
| 204 to 205 | O=C(Nc1ccc(F)cn1)c1cc(-c2ccc(Cl)c(Cl)c2)nc2ccccc12 |
| 120 to 122 | COC(=O)CNc1ccc(OC(=O)CC2CCN(c3ccncc3)CC2)cc1 |
| 211 to 212 | O=c1n(-c2cccc3ccccc23)c(=O)n(CCO)n1CCO |
| 141 | CC(Cl)Cn1cc(-c2ccccc2)c2ccccc2c1=O (centres undefined) |
| 222 to 224 | CCCN(C)c1ncc2cc(-c3ccc(C(=O)N4CCN(C)CC4)cc3)[nH]c2n1 |
| 108 to 111 | CCOC(=O)COc1ccc2c(c1)C[C@@H](NC[C@H](O)c1ccccc1)CC2 |
| 94 to 96 | CCCCn1nc(-c2cc(C(C)(C)C)c(O)c(C(C)(C)C)c2)c2cccnc21 |
| 70 | CS(=O)(=O)C(=C1CN(C(c2ccc(Cl)cc2)c2ccc(Cl)cc2)C1)c1cccc(SC(F)(F)F)c1 |
| 127 | CCOC(=O)c1ccc(-c2ccc(F)cc2)cc1-c1ccc(OC)c(OC)c1 |
| 210 to 212 | CNC(=O)c1cc(C)ccc1Nc1nc(Nc2ccc3c(c2)CCN(CCOC)CC3)ncc1Cl |
| 156 to 157 | O=C1CCCCN1[C@@H]1c2cc(C(F)(F)C(F)(F)C(F)(F)F)ccc2OC(CF)(CF)[C@H]1O (relative stereo) |
| 170 to 171 | Cc1cc(CCCCCOc2ccc(C3=NCCO3)cc2C(=O)O)on1 |
| 185 to 189 | Cc1cccc(Nc2cc(Cl)nc(SCC(=O)NN)n2)c1C |
| 89 to 99 | CN1C(=S)C(c2ccc(OC(F)(F)F)cc2)(c2cccc(-c3cccnc3F)c2)N=C1N (centres undefined) |
| 122 to 124 | O=C(CN1C(=O)CSC1=O)c1ccc(Cl)cc1 |
| 265 to 267 | O=C(O)c1ccc(Cc2nc3ccccc3[nH]2)cc1 |
| 134 to 137 | CN1C(=O)CC[C@]2(C)c3ccc(-c4ccc(Cl)c(C(F)(F)F)c4)cc3CC[C@@H]12 |
| 129 to 131 | CCOc1nc2ccccc2nc1N(C)C(=O)N1CCN(c2cc(Cl)cc(Cl)c2)CC1 |
| 147 to 149 | COc1ccc(COc2cc(NC(C)=O)c(Cl)cc2C(=O)CCCCCl)cc1 |
| 262 to 264 | N#Cc1csc(Oc2ccc(-c3ccc(Oc4scc(C#N)c4C#N)cc3)cc2)c1C#N |
| 108 to 110 | N#CSc1cc(N)c(N)cc1Cl |
| 248 to 251 | COC(=O)Cn1c2c(c3ccccc3c1=O)C(=O)c1ccccc1-2 |

| melting point [°C] | Structure (SMILES) |
| --- | --- |
| 152 to 154 | COc1ccc(CC(SC)C(N)=O)cc1C(=O)NCc1ccc(C(F)(F)F)cc1 (centres undefined) |
| 174 to 176 | Cc1ccc(NS(=O)(=O)c2ccc(N)cc2)cc1 |
| 253 to 254 | O=c1nc(-c2cccc(-n3cccn3)n2)sc2ccccc12 |
| 113 to 116 | Brc1ccc2noc(-c3ccccc3)c2c1 |
| 251 to 252 | Cn1cc(C(N)=O)c(-c2ccc([N+](=O)[O-])o2)n1 |
| 144 to 145 | N#CCC=Cc1ccccc1S(N)(=O)=O |
| 192 to 195 | COc1ccc(-c2cc(=Nc3c(C)cc(C)cc3C)n(C)c(N)n2)cc1OC |
| 123 to 125 | COC(=O)COc1ccc(C(C)=O)c2ccccc12 |
| 85 to 87 | COc1cccc(C=Cc2ccccc2)c1O |
| 147 to 148 | CCOC(=O)CNc1ccccc1C(N)=O |
| 179 to 181 | O=[N+]([O-])c1ccc2nc(-c3ccccc3)sc2c1 |
| 220 to 221 | CC(=O)n1ccc(-c2c(-c3ccncc3)c(-c3ccc(F)cc3)nn2CCO)cc1=O |
| 162 | COC(=O)C1(Nc2cc(Cl)c(Cl)cc2N)CCSC1 (centres undefined) |
| 188 to 190 | O=C(O)C(CN1C(=O)CNC1=O)CS(=O)(=O)c1ccc(-c2ccc(Cl)cc2)cc1 (centres undefined) |
| 133 to 134 | CC(=O)OCc1cc2c(C(O)CN(Cc3ccccc3)C(C)(C)C)ccc(OCc3ccccc3)c2[nH]1 (centres undefined) |
| 157 to 159 | Fc1cc(CC2(Cc3ccnc(F)c3)c3cccnc3-c3sccc32)ccn1 |
| 71 | COc1cc([N+](=O)[O-])ccc1-c1ccccc1 |
| 252 | O=C(O)c1ccc(C=Cc2ccccc2)cc1 |
| 236 | COc1ccc(N2CCOCC2)c2sc(NC(=O)N3CCC(C)(O)CC3)nc12 |
| 90 to 94 | C[Si](C)(C)Sc1ncn([Si](C)(C)C)n1 |
| 100 to 102 | Cc1cn(C(C)C(=O)N(C)C)nc1-c1cccs1 (centres undefined) |
| 176 to 178 | N#Cc1c2ccccc2c(-c2cc(Br)c(O[C@@H](Cc3ccccc3)C(=O)O)c(Br)c2)c2c1sc1ccccc12 |
| 182 to 185 | CCOCC(=O)Nc1c(NCC(C)C)cc(C)n2nnnc12 |

| melting point [°C] | Structure (SMILES) |
| --- | --- |
| 151 to 154 | Cn1ccnc1SCC(=O)Nc1ccc(-c2ccccc2)cc1 |
| 360 to 364 | COc1ccc(Cn2c3c(c4cc(OC)c(OC)cc4c2=O)C(=O)c2cc4c(cc2-3)OCO4)cc1 |
| 118 to 120 | O=S(=O)(NC1C2CCC(C2)C1CO)c1ccccc1 (centres undefined) |
| 56 to 58 | CCCCNC(=O)[C@@H](C[C@H](O)[C@@H](N)C[C@H](Cc1ccc(OC)c(CCOCOC)c1)C(C)C)C(C)C |
| 130 to 132 | CC(=O)N(C(C)=O)c1c(C#N)cnn1-c1ncc(C(F)(F)F)cc1Cl |
| 151 to 153 | Cc1ccccc1-n1cnc(OC(C)C(=O)O)n1 (centres undefined) |
| 104 to 106 | CN(C)CC1CC(c2ccc(S(C)(=O)=O)cc2)=C(c2cc(F)cc(F)c2)C1=O (centres undefined) |
| 196 to 197 | Clc1ccc(Nc2nnc(Cc3ccncc3)c3cccnc23)cc1 |
| 172 to 174 | CCn1c(=O)n(O)c(=O)c2cc(F)c(F)cc21 |
| 70 to 71 | Cc1cc2ccc(Cl)c(Cl)c2[nH]1 |
| 124 to 126 | CC(C)(C)C(=O)OCOC(=O)Cn1c(=O)c2cc(Cl)ccc2n(Cc2ccc(Cl)c(Cl)c2)c1=O |
| 143 to 144 | COc1ccc(-c2n[nH]c3ccsc23)cc1 |
| 65 to 69 | CC=CCn1c(C)c(CCCCC)c2cnnc(OCc3ccc(F)cc3)c21 |
| 73 to 75 | CCC(CO)NC(=O)C(C)(C)c1ccc(-c2cccc(COC)c2)cc1 (centres undefined) |
| 203 to 204 | CCOc1cc2cc(C(=O)OC)c(C(=O)OC)c(-c3ccnc(Br)c3)c2cc1OC |
| 136 to 138 | Nc1ccc(CNc2ccccn2)cc1O |
| 132 to 135 | CC(C)C(=CC(CNC(=O)c1cccnc1)=NO)C(C)[N+](=O)[O-] (centres undefined) |
| 245 to 249 | Cc1ccc([N+](=O)[O-])c(C)c1C(=O)c1c[nH]cn1 |
| 82 to 83 | COc1ccc(CC(C#N)c2cc(OC)c(OC)c(OC)c2)cc1 (centres undefined) |
| 139 to 141 | CNC(=S)NCCCSc1ncc[nH]1 |
| 187 to 189 | COCc1nc(S)nc(O)c1OC |
| 155 to 161 | COc1cccc(CNc2nccc(-c3cc(N4CCN(CCCN(C)C5CCCCC5)CC4)c4cc(OC)ccc4c3)n2)c1 |

| Structure (SMILES) | melting point [°C] |
| --- | --- |
| N#CC1(N2CCCCC2)CCCCC1 | 66 to 68 |
| CNC(=O)N1N=C(c2ccc([N+](=O)[O-])c(C)c2)c2cc(Cl)ccc2C=C1C | 196 to 198 |
| Fc1ccccc1C1=CCC(=S)Nc2ccc(Cl)cc21 | 179 to 181 |
| CC(C)(C)OC(=O)N1CCN(CC(O)CNc2ccc(CC#N)cc2)CC1 (centres undefined) | 86 to 87 |
| O=C(Nc1ccccc1)ONC1=Nc2ccc(Br)cc2C(c2ccccn2)=NC1 | 190 to 192 |
| COC(=O)[C@@H]1COC(c2ncn3c2CN(C)C(=O)c2ccccc2-3)=N1 | 190 to 192 |
| CN1C2C=C(c3c[nH]c4ccc([N+](=O)[O-])cc34)CC1CC2 (centres undefined) | 234 to 236 |
| O=c1ncc(Br)cn1CC(O)C(Cl)(Cl)Cl (centres undefined) | 210 to 212 |
